Source: ChEMBL document CHEMBL1153031, “Evaluation of anti-inflammatory effect of synthetic 1,5-bis(4-acetoxy-3-methoxyphenyl)-1,4-pentadien-3-one, HB2” (Bioorg Med Chem, 2009)

Assays:
Assay type in all cases: functional
Settings in all cases: route intraperitoneal
Mus musculus [1] = experiment: Antiinflammatory activity against bradykinin-induced paw oedema in mouse at 1 mg/kg, ip treated 30 mins before bradykinin challenge measured after 60 mins by plethysmometry analysis
Mus musculus [2] = experiment: Antiinflammatory activity against carrageenan-induced paw oedema in mouse at 1 mg/kg, ip treated 30 mins before carrageenan challenge measured after 2 hrs by plethysmometry analysis
Mus musculus [3] = experiment: Antiinflammatory activity against carrageenan-induced paw oedema in mouse at 1 mg/kg, ip treated 30 mins before carrageenan challenge measured after 4 hrs by plethysmometry analysis
Mus musculus [4] = experiment: Antiinflammatory activity against bradykinin-induced paw oedema in mouse at 1 mg/kg, ip treated 30 mins before bradykinin challenge measured after 30 mins by plethysmometry analysis
Mus musculus [5] = experiment: Antiinflammatory activity against bradykinin-induced paw oedema in mouse at 1 mg/kg, ip treated 30 mins before bradykinin challenge measured after 120 mins by plethysmometry analysis
Mus musculus [6] = experiment: Antiinflammatory activity against bradykinin-induced paw oedema in mouse at 1 mg/kg, ip treated 30 mins before bradykinin challenge measured after 15 mins by plethysmometry analysis
Mus musculus [7] = experiment: Antiinflammatory activity against carrageenan-induced paw oedema in mouse at 1 mg/kg, ip treated 30 mins before carrageenan challenge measured after 5 hrs by plethysmometry analysis
Mus musculus [8] = experiment: Antiinflammatory activity against bradykinin-induced paw oedema in mouse at 1 mg/kg, ip treated 30 mins before bradykinin challenge measured after 240 mins by plethysmometry analysis
Mus musculus [9] = experiment: Antiinflammatory activity against carrageenan-induced paw oedema in mouse at 1 mg/kg, ip treated 30 mins before carrageenan challenge measured after 6 hrs by plethysmometry analysis
Mus musculus [10] = experiment: Antiinflammatory activity against carrageenan-induced paw oedema in mouse at 1 mg/kg, ip treated 30 mins before carrageenan challenge measured after 1 hr by plethysmometry analysis

SMILES | inhibition in vivo at 1 mg/kg (Mus musculus [1]) [%] | inhibition in vivo at 1 mg/kg (Mus musculus [2]) [%] | inhibition in vivo at 1 mg/kg (Mus musculus [3]) [%] | inhibition in vivo at 1 mg/kg (Mus musculus [4]) [%] | inhibition in vivo at 1 mg/kg (Mus musculus [5]) [%] | inhibition in vivo at 1 mg/kg (Mus musculus [6]) [%] | inhibition in vivo at 1 mg/kg (Mus musculus [7]) [%] | inhibition in vivo at 1 mg/kg (Mus musculus [8]) [%] | inhibition in vivo at 1 mg/kg (Mus musculus [9]) [%] | inhibition in vivo at 1 mg/kg (Mus musculus [10]) [%]
COc1cc(/C=C/C(=O)/C=C/c2ccc(O)c(OC)c2)ccc1O | 3.25 | 22.9 | 17.4 | 4 | 2.5 | 5.04 | 15.1 | 2.2 | 10.1 | 14.6
COc1ccc2c(c1)c(CC(=O)O)c(C)n2C(=O)c1ccc(Cl)cc1 [INDOMETHACIN] | 2.5 | 10.8 | 7.14 | 3.5 | 2.09 | 5 | 6.28 | 1.9 | 5.66 | 12.6
